How the values were obtained:
Experiment in all cases: isothermal titration calorimetry
Type in all cases: binding
[1] = molecular target: T1, Bdf2 bromodomain (Bdf2^9-123) (Trypanosoma brucei, UniProt Q38AM1)
T1 construct: gene Tb10.6k15.3240; bromodomain, residues 9-123, amplified from genomic DNA, pET28a with N-terminal PreScission-cleavable His6 tag, E. coli; crystal model residues 9-114
T1 sequence (Q38AM1 9-123): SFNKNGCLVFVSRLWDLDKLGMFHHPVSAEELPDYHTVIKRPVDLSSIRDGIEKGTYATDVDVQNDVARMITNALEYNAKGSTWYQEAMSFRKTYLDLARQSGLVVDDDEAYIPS
Description: isothermal titration calorimetry on Bdf2 bromodomain (Bdf2^9-123) | confirmed direct and specific binding of I-BET151 to their AcK recognition sites

[2] = molecular target: T2, Bdf3 bromodomain (Bdf3^32-150) (Trypanosoma brucei, UniProt Q383S2)
T2 construct: gene Tb11.01.1830; bromodomain, residues 32-150, amplified from genomic DNA, pET28a with N-terminal PreScission-cleavable His6 tag, E. coli; strain-construction section prints a conflicting locus Tb427.01.1830
T2 sequence (Q383S2 32-150): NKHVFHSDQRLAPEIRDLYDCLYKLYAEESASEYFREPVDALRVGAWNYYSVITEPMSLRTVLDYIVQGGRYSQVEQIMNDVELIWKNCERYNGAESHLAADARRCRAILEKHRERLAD
Description: isothermal titration calorimetry on Bdf3 bromodomain (Bdf3^32-150) | confirmed direct and specific binding of I-BET151 to their AcK recognition sites

[3] = molecular target: T1, Bdf2 bromodomain (Bdf2^9-123); settings: 15°C, pH 7.5, 20 mM Hepes, 150 mM NaCl, 0.5 mM TCEP, 1% DMSO
[4] = molecular target: T2, Bdf3 bromodomain (Bdf3^32-150); settings: 15°C, pH 7.5, 20 mM Hepes, 150 mM NaCl, 0.5 mM TCEP, 1% DMSO

COc1cc2c(cc1-c1c(C)noc1C)ncc1[nH]c(=O)n([C@H](C)c3ccccn3)c12 [I-BET151]
Kd [1]: 225 ± 5 µM
Kd [2]: 175 ± 10 µM

Cc1sc2c(c1C)C(c1ccc(Cl)cc1)=N[C@@H](CC(=O)OC(C)(C)C)c1nnc(C)n1-2 [JQ1]
no binding detected [3]: we could not detect binding of another well characterized bromodomain inhibitor, JQ1
no binding detected [4]: we could not detect binding of another well characterized bromodomain inhibitor, JQ1

From paper PMC4672894, “Bromodomain Proteins Contribute to Maintenance of Bloodstream Form Stage Identity in the African Trypanosome” (PLoS Biology, 2015)
